Laboratory results from ChEMBL document CHEMBL1240454, “1,3-Dioxolane-based ligands incorporating a lactam or imide moiety: structure-affinity/activity relationship at alpha1-adrenoceptor subtypes and at 5-HT1A receptors” (Eur J Med Chem, 2010).

Columns and labels:
[1] = target: T1, 5-hydroxytryptamine receptor 1A (Homo sapiens) (UniProt P08908); assay: Agonist activity at human cloned 5HT1A receptor expressed in human HeLa cells assessed as stimulation of [35S]GTPgammaS binding after 20 mins by liquid scintillation counting; type: functional, cell-based
T1 sequence (whole entry): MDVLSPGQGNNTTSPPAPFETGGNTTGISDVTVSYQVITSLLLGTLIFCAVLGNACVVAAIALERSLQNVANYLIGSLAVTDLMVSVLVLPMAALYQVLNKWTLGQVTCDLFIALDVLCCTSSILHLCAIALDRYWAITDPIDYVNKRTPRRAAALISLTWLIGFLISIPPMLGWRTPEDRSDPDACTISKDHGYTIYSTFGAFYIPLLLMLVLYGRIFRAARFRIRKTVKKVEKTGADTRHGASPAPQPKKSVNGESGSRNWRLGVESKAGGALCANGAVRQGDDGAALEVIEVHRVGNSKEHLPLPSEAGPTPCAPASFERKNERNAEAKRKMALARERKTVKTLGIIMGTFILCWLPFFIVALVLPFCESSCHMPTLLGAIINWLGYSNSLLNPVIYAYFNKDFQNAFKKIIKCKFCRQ

[2] = target: T1, 5-hydroxytryptamine receptor 1A (Homo sapiens); assay: Agonist activity at human cloned 5HT1A receptor expressed in human HeLa cells assessed as stimulation of [35S]GTPgammaS binding after 20 mins by liquid scintillation counting relative to maximal 5HT response; type: functional, cell-based
[3] = target: T2, Alpha-1B adrenergic receptor (Rattus norvegicus) (UniProt P15823); assay: Antagonist activity at adrenergic Alpha-1B receptor in Wistar rat spleen assessed as inhibition of […]-induced tissue contraction treated 30 mins before […] challenge; type: functional, tissue-based
T2 sequence (whole entry): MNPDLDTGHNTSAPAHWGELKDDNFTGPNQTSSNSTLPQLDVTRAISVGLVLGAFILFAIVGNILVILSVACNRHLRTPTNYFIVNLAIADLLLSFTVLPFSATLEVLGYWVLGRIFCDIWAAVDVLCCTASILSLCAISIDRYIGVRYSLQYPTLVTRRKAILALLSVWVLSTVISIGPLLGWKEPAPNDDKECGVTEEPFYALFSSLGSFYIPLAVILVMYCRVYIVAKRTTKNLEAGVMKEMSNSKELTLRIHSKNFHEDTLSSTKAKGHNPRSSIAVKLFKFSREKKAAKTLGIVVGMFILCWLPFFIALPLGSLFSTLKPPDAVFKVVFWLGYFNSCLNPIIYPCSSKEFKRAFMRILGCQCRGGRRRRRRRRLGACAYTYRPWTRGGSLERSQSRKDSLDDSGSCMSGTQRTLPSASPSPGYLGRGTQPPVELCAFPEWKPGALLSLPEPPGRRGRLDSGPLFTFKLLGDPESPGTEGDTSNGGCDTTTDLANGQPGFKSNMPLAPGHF

## COc1ccccc1N1CCN(CCN2C(=O)CC3(CCCC3)CC2=O)CC1
[1]
  pD2: 7.83
[2]
  Emax: 100%
[3]
  pKb: 7.48

## CCCN(CCC)C1CCc2cccc(O)c2C1 (stereo not given)
[1]
  pD2: 9.27
[2]
  Emax: 26%
